In patent US10405547B2, “Substituted cyclic amides as herbicides” (FMC Corporation, priority 2015, dated 2019):

Assays:
Type in all cases: in vivo
corn (Zea mays) = assay: Test A postemergence, corn; details: visual injury, 0 to 100 scale (0 no effect, 100 complete control), approximately 10 days
Summary of the method: (§1)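 Greenhouse test: compounds in solvent with surfactant sprayed onto loam–sand soil after planting (preemergence) or onto plants 2-10 cm at the one- to two-leaf stage (postemergence). Injury visually rated versus untreated controls after about 10 days on a 0-100 scale (100 = complete control).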

[1] = system: pigweed (Amaranthus retroflexus); assay: Test A postemergence, pigweed; details: visual injury, 0 to 100 scale (0 no effect, 100 complete control), approximately 10 days
Summary of the method: as §1

[2] = system: foxtail, giant (Setaria faberii); assay: Test A preemergence, giant foxtail; details: 0 to 100 scale (0 no effect, 100 complete control)
Summary of the method: as §1

[3] = system: ryegrass, Italian (Lolium multiflorum); assay: Test A preemergence, Italian ryegrass; details: 0 to 100 scale (0 no effect, 100 complete control)
Summary of the method: as §1

[4] = system: ducksalad (Heteranthera limosa); assay: Test B flooded paddy test, ducksalad; details: 250 g ai/ha, applied to paddy water, visual rating after 13 to 15 days, scale 0 (no effect) to 100 (complete control)
Text: (§2) At time of treatment, test pots were flooded to 3 cm above the soil surface, treated by application of test compounds directly to the paddy water, and then maintained at that water depth for the duration of the test. Treated plants and controls were maintained in a greenhouse for 13 to 15 days, after which time all species were compared to controls and visually evaluated. […] A dash (-) response means no test result.

[5] = system: ragweed (common ragweed, Ambrosia elatior); assay: Test A preemergence, ragweed; details: 0 to 100 scale (0 no effect, 100 complete control)
Summary of the method: as §1

[6] = system: wheat (Triticum aestivum); assay: Test A postemergence, wheat; details: visual injury, 0 to 100 scale (0 no effect, 100 complete control), approximately 10 days
Summary of the method: as §1

[7] = system: ragweed (common ragweed, Ambrosia elatior); assay: Test A postemergence, ragweed; details: visual injury, 0 to 100 scale (0 no effect, 100 complete control), approximately 10 days
Summary of the method: as §1

[8] = system: ryegrass, Italian (Lolium multiflorum); assay: Test A postemergence, Italian ryegrass; details: visual injury, 0 to 100 scale (0 no effect, 100 complete control), approximately 10 days
Summary of the method: as §1

[9] = system: blackgrass (Alopecurus myosuroides); assay: Test A postemergence, blackgrass; details: visual injury, 0 to 100 scale (0 no effect, 100 complete control), approximately 10 days
Summary of the method: as §1

[10] = system: galium (catchweed bedstraw, Galium aparine); assay: Test A postemergence, galium; details: visual injury, 0 to 100 scale (0 no effect, 100 complete control), approximately 10 days
Summary of the method: as §1

kochia (Kochia scoparia) [11] = assay: Test A preemergence, kochia; details: 0 to 100 scale (0 no effect, 100 complete control)
Summary of the method: as §1

[12] = system: barnyardgrass (Echinochloa crus-galli); assay: Test A postemergence, barnyardgrass; details: visual injury, 0 to 100 scale (0 no effect, 100 complete control), approximately 10 days
Summary of the method: as §1

[13] = system: barnyardgrass (Echinochloa crus-galli); assay: Test A preemergence, barnyardgrass; details: 0 to 100 scale (0 no effect, 100 complete control)
Summary of the method: as §1

[14] = system: foxtail, giant (Setaria faberii); assay: Test A postemergence, giant foxtail; details: visual injury, 0 to 100 scale (0 no effect, 100 complete control), approximately 10 days
Summary of the method: as §1

[15] = system: sedge, umbrella (small-flower umbrella sedge, Cyperus difformis); assay: Test B flooded paddy test, umbrella sedge; details: 250 g ai/ha, applied to paddy water, visual rating after 13 to 15 days, scale 0 (no effect) to 100 (complete control)
Text: as §2

[16] = system: pigweed (Amaranthus retroflexus); assay: Test A preemergence, pigweed; details: 0 to 100 scale (0 no effect, 100 complete control)
Summary of the method: as §1

rice (Oryza sativa) = assay: Test B flooded paddy test, rice; details: 250 g ai/ha, applied to paddy water, visual rating after 13 to 15 days, scale 0 (no effect) to 100 (complete control)
Text: as §2

[17] = system: barnyardgrass (Echinochloa crus-galli); assay: Test B flooded paddy test, barnyardgrass; details: 250 g ai/ha, applied to paddy water, visual rating after 13 to 15 days, scale 0 (no effect) to 100 (complete control)
Text: as §2

kochia (Kochia scoparia) [18] = assay: Test A postemergence, kochia; details: visual injury, 0 to 100 scale (0 no effect, 100 complete control), approximately 10 days
Summary of the method: as §1

Row | SMILES | Plant response rating, Corn (corn (Zea mays); 125 g ai/ha) | Plant response rating, Corn (corn (Zea mays); 500 g ai/ha) | Plant response rating, Pigweed ([1]; 125 g ai/ha) | Plant response rating, Pigweed ([1]; 500 g ai/ha) | Plant response rating, Foxtail, Giant ([2]; 125 g ai/ha) | Plant response rating, Foxtail, Giant ([2]; 500 g ai/ha) | Plant response rating, Ryegrass, Italian ([3]; 125 g ai/ha) | Plant response rating, Ryegrass, Italian ([3]; 500 g ai/ha) | Plant response rating, Ragweed ([5]; 125 g ai/ha) | Plant response rating, Ragweed ([5]; 500 g ai/ha) | Plant response rating, Wheat ([6]; 125 g ai/ha) | Plant response rating, Wheat ([6]; 500 g ai/ha) | Plant response rating, Ragweed ([7]; 125 g ai/ha) | Plant response rating, Ragweed ([7]; 500 g ai/ha) | Plant response rating, Ryegrass, Italian ([8]; 125 g ai/ha) | Plant response rating, Ryegrass, Italian ([8]; 500 g ai/ha) | Plant response rating, Blackgrass ([9]; 125 g ai/ha) | Plant response rating, Blackgrass ([9]; 500 g ai/ha) | Plant response rating, Galium ([10]; 125 g ai/ha) | Plant response rating, Galium ([10]; 500 g ai/ha) | other results
1 | CN1CC(c2cccc(Oc3ccc(F)cn3)c2)C(C(=O)Nc2ccccc2F)C1=O (single isomer, unassigned) [Compound 60] | 30 | 50 | 0 | 40 | 90 | 90 | 20 | 70 | 40 | 50 | 0 | 70 | 0 | 40 | 30 | 50 | 0 | 30 | 30 | 60 | Plant response rating, Ducksalad (Flood) [4]: 100; Plant response rating, Kochia (kochia (Kochia scoparia) [11]; 125 g ai/ha): 70; Plant response rating, Kochia (kochia (Kochia scoparia) [11]; 500 g ai/ha): 80; Plant response rating, Barnyardgrass ([12]; 125 g ai/ha): 70; Plant response rating, Barnyardgrass ([12]; 500 g ai/ha): 90; Plant response rating, Barnyardgrass ([13]; 125 g ai/ha): 90; Plant response rating, Barnyardgrass ([13]; 500 g ai/ha): 90; Plant response rating, Foxtail, Giant ([14]; 125 g ai/ha): 80; Plant response rating, Foxtail, Giant ([14]; 500 g ai/ha): 90; Plant response rating, Sedge, Umbrella (Flood) [15]: 0; Plant response rating, Pigweed ([16]; 125 g ai/ha): 60; Plant response rating, Pigweed ([16]; 500 g ai/ha): 50; Plant response rating, Rice (Flood) (rice (Oryza sativa)): 0; Plant response rating, Barnyardgrass (Flood) [17]: 65
2 | O=C1NCC(c2cccc(Oc3ncc(Cl)cn3)c2)C1C(=O)Nc1ccccc1F (centres unmarked) [Compound 55] | 0 | 0 | 0 | 0 | 80 | 90 | 0 | 20 | 0 | 0 | 0 | 0 | 0 | 0 | 0 | 30 | 0 | 0 | 0 | 30 | Plant response rating, Kochia (kochia (Kochia scoparia) [18]; 125 g ai/ha): 0; Plant response rating, Kochia (kochia (Kochia scoparia) [18]; 500 g ai/ha): 0; Plant response rating, Kochia (kochia (Kochia scoparia) [11]; 125 g ai/ha): 0; Plant response rating, Kochia (kochia (Kochia scoparia) [11]; 500 g ai/ha): 20; Plant response rating, Barnyardgrass ([12]; 125 g ai/ha): 30; Plant response rating, Barnyardgrass ([12]; 500 g ai/ha): 80; Plant response rating, Barnyardgrass ([13]; 125 g ai/ha): 0; Plant response rating, Barnyardgrass ([13]; 500 g ai/ha): 80; Plant response rating, Foxtail, Giant ([14]; 125 g ai/ha): 70; Plant response rating, Foxtail, Giant ([14]; 500 g ai/ha): 80; Plant response rating, Pigweed ([16]; 125 g ai/ha): 0; Plant response rating, Pigweed ([16]; 500 g ai/ha): 0
3 | O=C1NCC(c2cccc(Oc3ncc(Cl)cn3)c2)C1C(=O)Nc1cccc(F)c1F (centres unmarked) [Compound 56] | 0 | 0 | 0 | 0 | 0 | 0 | 0 | 0 | 0 | 0 | 0 | 0 | 0 | 0 | 0 | 0 | 0 | 0 | 0 | 20 | Plant response rating, Kochia (kochia (Kochia scoparia) [18]; 125 g ai/ha): 0; Plant response rating, Kochia (kochia (Kochia scoparia) [18]; 500 g ai/ha): 0; Plant response rating, Kochia (kochia (Kochia scoparia) [11]; 125 g ai/ha): 0; Plant response rating, Kochia (kochia (Kochia scoparia) [11]; 500 g ai/ha): 0; Plant response rating, Barnyardgrass ([12]; 125 g ai/ha): 0; Plant response rating, Barnyardgrass ([12]; 500 g ai/ha): 30; Plant response rating, Barnyardgrass ([13]; 125 g ai/ha): 30; Plant response rating, Barnyardgrass ([13]; 500 g ai/ha): 70; Plant response rating, Foxtail, Giant ([14]; 125 g ai/ha): 0; Plant response rating, Foxtail, Giant ([14]; 500 g ai/ha): 60; Plant response rating, Pigweed ([16]; 125 g ai/ha): 0; Plant response rating, Pigweed ([16]; 500 g ai/ha): 0
